Test [1] addresses recombinant human full-length SHP2 (Homo sapiens (Human), UniProt Q06124). Description: Allosteric inhibition of full-length SHP2 enzyme (DiFMUP fluorescence). Type of test: biochemical. The note with it: full-length SHP2 0.5 nM, activating peptide 0.5 uM, DiFMUP substrate. The text has this: The following method was used to determine the inhibition degrees of the compounds of the present invention on the activity of recombinant human full-length SHP2 in vitro. SHP2 was allosterically activated by the binding of di-tyrosyl-phosphorylated peptide to a Src homologous 2(SH2) domain of SHP2. An activation step of the latter leads to the self-inhibitory interface release of SHP2, and then activates SHP2 protein tyrosine phosphatase (PTP), which might be used for substrate recognition and reaction catalysis.
The experimental process was briefly described as follows: Test compounds were first dissolved in DMSO to prepare storage solutions. […] Then, the compounds to be tested were added in a concentration range of 0.00004-10 uM and incubated at 25° C. for 60 minutes. Then DiFMUP (Thermo, D6567) was added in the reaction and incubated at 25° C. for 30 minutes. After incubation, readings were taken using a microplate reader (BMG) with excitation and emission wavelengths of 340 nm and 450 nm, respectively.

For test [2], the system named is NCI-H23 cells (containing KRAS G12C mutation). The experiment in a line: Inhibition of NCI-H23 cell proliferation (CellTiter-Glo). Type of test: cell-based. Conditions: Homo sapiens, 120 hours culture. As to the method:
The following method was used to determine the effects of the compounds of the present invention on NCI-H23 cell proliferation. NCI-H23 cells (containing KRAS G12C mutation) were purchased from Cell Resource Center of Shanghai Institutes for Biological Sciences, Chinese Academy of Sciences, and cultured in RPMI 1640 mediums containing 10% fetal bovine serum, 100 U penicillin, 100 μg/mL streptomycin and 1 mM Sodium Pyruvate. The activities of the cells were determined by CellTiter-Glo® Luminescent Cell Viability Assay kit (Promega, article number: G7573).
(§1) The experimental method was operated according to the steps in the kit instruction, and was briefly described as follows: test compounds were first dissolved in DMSO to prepare storage solutions of 10 mM, and then diluted in mediums, prepared as test samples. The final concentrations of the test compounds were 10,000 nM to 1.52 nM. The cells in logarithmic phase were inoculated in a 96-well cell culture plate with 1,000 cells per well, after cultured overnight in 5% CO2 incubator at 37° C., the test compounds were added to the incubator to continue the culture for 120 hours. After the culture, 50 μL of CellTiter-Glo detection solution was added to each well, shaken for 5 minutes, and then stood for 10 minutes. Then, a Luminescence mode was used to read the luminescence values of each well of the samples on a microplate reader. Compared with the numerical value of a control group (0.3% DMSO), the percentage inhibition rates of the compounds at each concentration were calculated, and the IC50 values of the compounds inhibiting cell proliferation were obtained by performing nonlinear regression analysis with logarithmic values of the compound concentration—inhibition rate by GraphPad Prism 5 software, which was shown in Table 2.
(Cellular ATP, detected with luciferase, serves as a proxy for viable cell number.)

For test [3], the system named is NCI-H358 cells (containing KRAS G12C mutation). The experiment in a line: Inhibition of NCI-H358 cell proliferation (CellTiter-Glo). The note with it: Homo sapiens, NCI-H358, 120 h, read-out: IC50(nM)/NCI-H358. In kind it is cell-based. As for the experimental part:
The following method was used to determine the effects of the compounds of the present invention on NCI-H358 cell proliferation. NCI-H358 cells (containing KRAS G12C mutation) were purchased from Cell Resource Center of Shanghai Institutes for Biological Sciences, Chinese Academy of Sciences, and cultured in RPMI 1640 mediums containing 10% fetal bovine serum, 100 U penicillin, 100 μg/mL streptomycin and 1 mM Sodium Pyruvate. The activities of the cells were determined by CellTiter-Glo® Luminescent Cell Viability Assay kit (Promega, article number: G7573).
as §1, with “of the” for “of a”, “Table 3.” for “Table 2.”

Each structure is given as a SMILES string. pIC50: −log10 of the molar value.

recombinant human full-length SHP2, sequence (Q06124 whole entry): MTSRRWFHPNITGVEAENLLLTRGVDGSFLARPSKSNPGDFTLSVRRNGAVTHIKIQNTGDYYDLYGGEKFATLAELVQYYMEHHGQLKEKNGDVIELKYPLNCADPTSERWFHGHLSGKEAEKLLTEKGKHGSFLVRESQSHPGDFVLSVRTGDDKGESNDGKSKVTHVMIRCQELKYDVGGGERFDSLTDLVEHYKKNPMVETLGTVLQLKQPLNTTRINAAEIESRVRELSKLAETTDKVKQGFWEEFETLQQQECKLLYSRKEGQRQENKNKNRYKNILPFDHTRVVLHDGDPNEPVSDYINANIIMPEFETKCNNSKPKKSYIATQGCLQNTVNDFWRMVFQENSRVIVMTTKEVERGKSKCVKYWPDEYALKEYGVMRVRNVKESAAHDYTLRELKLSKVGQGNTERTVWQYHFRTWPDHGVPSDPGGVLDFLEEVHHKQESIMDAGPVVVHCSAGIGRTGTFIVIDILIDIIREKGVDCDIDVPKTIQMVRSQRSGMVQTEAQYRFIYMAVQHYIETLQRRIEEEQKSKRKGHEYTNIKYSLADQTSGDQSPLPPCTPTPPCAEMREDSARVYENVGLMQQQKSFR

Turning to `NC(=O)c1nc(N2CCC(N)CC2)nc2[nH]nc(-c3cccc(Cl)c3Cl)c12` [Example 15, 6-(4-Aminopiperidin-1-yl)-3-(2,3-dichlorophenyl)-1H-pyrazolo[3,4-d]pyrimidine-4-carboxamide], the negative-log IC50 (pIC50) (commonly the IC50 on a negative log10 scale, so that one unit is a factor of ten) in test [1] is 7.62.

For `COc1nccc(-c2n[nH]c3nc(N4CCC(N)(c5ccccc5F)CC4)nc(C(N)=O)c23)c1Cl` [Example 32, 6-(4-amino-4-(2-fluorophenyl)piperidin-1-yl)-3-(3-chloro-2-methoxypyridin-4-yl)-1H-pyrazolo[3,4-d]pyrimidine-4-carboxamide], in test [1], the pIC50 was 8.00.

Consider `Cc1nc(N2CCC3(CC2)CO[C@@H](C)[C@H]3N)c(CO)nc1-c1cccc(Cl)c1Cl` [RMC-4550, reference compound], for which the results for the IC50 in test [2] and in test [3] were 240 nM and 80 nM, respectively.

With `COc1ccc(C2(N)CCN(c3nc(C(N)=O)c4c(-c5cccc(Cl)c5Cl)n[nH]c4n3)CC2)cc1` [Example 46, 6-(4-amino-4-(4-methoxyphenyl)piperidin-1-yl)-3-(2,3-dichlorophenyl)-1H-pyrazolo[3,4-d]pyrimidine-4-carboxamide], the pIC50 in test [1] is 8.52.

Consider `NC(=O)c1nc(N2CCC(N)(c3ccccc3)CC2)nc2[nH]cc(-c3cccc(Cl)c3Cl)c12` [Example 53, 2-(4-amino-4-phenylpiperidin-1-yl)-5-(2,3-dichlorophenyl)-7H-pyrrolo[2,3-d]pyrimidine-4-carboxamide], for which the negative-log IC50 (pIC50) in test [1] is 7.96.

In the case of `N[C@@H]1c2ccccc2CC12CCN(c1nc(C(=O)O)c3c(-c4cccc(Cl)c4Cl)n[nH]c3n1)CC2` [Example 9, (S)-6-(1-amino-1,3-dihydrospiro[indene-2,4′-piperidin]-1′-yl)-3-(2,3-dichlorophenyl)-1H-pyrazolo[3,4-d]pyrimidine-4-carboxylic acid], the pIC50 in test [1] was 9.00. Further, the IC50 in test [2] was determined as 13 nM.

For the compound `NC(=O)c1nc(N2[C@@H]3CC[C@H]2C[C@@H](N)C3)nc2[nH]nc(-c3cccc(Cl)c3Cl)c12` [Example 7, 6-((endo)-3-amino-8-azabicyclo[3.2.1]octan-8-yl)-3-(2,3-dichlorophenyl)-1H-pyrazolo[3,4-d]pyrimidine-4-carboxamide], the pIC50 in test [1] is 7.85.

For the compound `NC(=O)c1nc(N2CCC(N)(CO)CC2)nc2[nH]nc(-c3cccc(Cl)c3Cl)c12` [Example 13, 6-(4-Amino-4-(hydroxymethyl)piperidin-1-yl)-3-(2,3-dichlorophenyl)-1H-pyrazolo[3,4-d]pyrimidine-4-carboxamide], the pIC50 in test [1] was 8.00.

In the case of `NC(=O)c1nc(N2[C@@H]3CC[C@H]2C[C@H](N)C3)nc2[nH]nc(-c3cccc(Cl)c3Cl)c12` [Example 8, 6-((exo)-3-amino-8-azabicyclo[3.2.1]octan-8-yl)-3-(2,3-dichlorophenyl)-1H-pyrazolo[3,4-d]pyrimidine-4-carboxamide], in test [1], the pIC50 was 8.30.

On to `NC1(c2ccccc2)CCN(c2nc(-c3nnn[nH]3)c3c(-c4cccc(Cl)c4Cl)n[nH]c3n2)CC1` [Example 30, 1-(3-(2,3-dichlorophenyl)-4-(1H-tetrazol-5-yl)-1H-pyrazolo[3,4-d]pyrimidin-6-yl)-4-phenylpiperidin-4-amine], for which, in test [1], the pIC50 is 8.52.

In the case of `NC1(c2ccc(Cl)cc2)CCN(c2nc(C(=O)O)c3c(-c4cccc(Cl)c4Cl)n[nH]c3n2)CC1` [Example 24, 6-(4-amino-4-(4-chlorophenyl)piperidin-1-yl)-3-(2,3-dichlorophenyl)-1H-pyrazolo[3,4-d]pyrimidine-4-carboxylic acid], the pIC50 in test [1] was 8.30.

For `NC1(c2ccccc2Cl)CCN(c2nc(C(=O)O)c3c(-c4cccc(Cl)c4Cl)n[nH]c3n2)CC1` [Example 23, 6-(4-amino-4-(2-chlorophenyl)piperidin-1-yl)-3-(2,3-dichlorophenyl)-1H-pyrazolo[3,4-d]pyrimidine-4-carboxylic acid], in test [1], the pIC50 is 8.70.

Turning to `CC1(N)CCN(c2nc(C(N)=O)c3c(-c4cccc(Br)c4Cl)n[nH]c3n2)CC1` [Example 12, 6-(4-amino-4-methylpiperidin-1-yl)-3-(3-bromo-2-chlorophenyl)-1H-pyrazolo[3,4-d]pyrimidine-4-carboxamide], the pIC50 in test [1] was 8.10.

`NC(=O)c1nc(N2CCC(N)(c3ccccn3)CC2)nc2[nH]nc(-c3cccc(Cl)c3Cl)c12` [Example 38, 6-(4-amino-4-(pyridin-2-yl)piperidin-1-yl)-3-(2,3-dichlorophenyl)-1H-pyrazolo[3,4-d]pyrimidine-4-carboxamide]: in test [1], the pIC50 is 7.57.

On to `NC1(c2cccc(Cl)c2)CCN(c2nc(C(=O)O)c3c(-c4cccc(Cl)c4Cl)n[nH]c3n2)CC1` [Example 25, 6-(4-amino-4-(3-chlorophenyl)piperidin-1-yl)-3-(2,3-dichlorophenyl)-1H-pyrazolo[3,4-d]pyrimidine-4-carboxylic acid], for which, in test [1], the pIC50 was 8.30.

Consider `CC1(N)CCN(c2nc(C(N)=O)c3c(-c4cccc(Cl)c4Cl)n[nH]c3n2)CC1` [Example 2, 6-(4-amino-4-methylpiperidin-1-yl)-3-(2,3-dichlorophenyl)-1H-pyrazolo[3,4-d]pyrimidine-4-carboxamide], for which the negative-log IC50 (pIC50) in test [1] is 7.54.

Take `NC(=O)c1nc(N2CCC(N)(c3c(F)cccc3F)CC2)nc2[nH]nc(-c3cccc(Cl)c3Cl)c12` [Example 11, 6-(4-amino-4-(2,6-difluorophenyl)piperidin-1-yl)-3-(2,3-dichlorophenyl)-1H-pyrazolo[3,4-d]pyrimidine-4-carboxamide]: in test [1], the pIC50 is 7.77.

Consider `Cc1cccc(-c2n[nH]c3nc(N4CCC(N)(c5ccccc5)CC4)nc(C(N)=O)c23)c1Cl` [Example 29, 6-(4-amino-4-phenylpiperidin-1-yl)-3-(2-chloro-3-methylphenyl)-1H-pyrazolo[3,4-d]pyrimidine-4-carboxamide], for which the pIC50 in test [1] was 8.52.

The values above are taken from patent US20230348467A1, “Heteroaryl Derivative, Preparation Method Therefor, And Use Thereof” (Zhejiang Hisun Pharmaceutical Co., Ltd., priority 2020, published 2023).
